The source of these data is patent US11377447B2, “Targeted therapeutics” (MADRIGAL PHARMACEUTICALS, INC., priority 2017, dated 2022).

A short description of this data set: pH of reconstituted and diluted drug product solution. The format is physicochemical. The conditions noted are these: lyophilized powder reconstituted with Water for Injection. The protocol: This solution is filled to deliver 105 mg/vial into a container closure system consisting of a USP Type 1 clear glass vial, stopper, and overseal. The drug product is stored at 2° C. to 8° C., away from light. Prior to administration the lyophilized powder is reconstituted with Water for Injection and then is further diluted in 0.9% Sodium Chloride Injection, USP to the target concentration prior to use. SDC-TRAP-0063 Sodium may have a concentration of between about 25 to about 50 mg/mL, between about 50 to about 100 mg/mL, between about 100 to about 150 mg/mL, or between about 150 to 200 mg/mL. The drug product is intended for intravenous administration by infusion.
The reconstituted solution of SDC-TRAP-0063 Sodium has a pH of 10.0. This solution is diluted to the target dose in 0.9% sodium chloride injection, USP. The pH of the infusion solution depends on the concentration of SDC-TRAP-0063 Sodium in the diluted infusion solution. Across the dose ranges employed in the clinical study protocol, the volume of the diluted infusion solution administered will range from 50 to 500 mL, and the pH will range from 8.1 to 9.6. In order to reduce the potential risks of injection site pain and/or damage to the venous endothelium during IV administration, a central venous access line is used for administration of the diluted SDC-TRAP-0063 Sodium.

Turning to `CCc1c2c(nc3ccc(OC(=O)N4CCC(CCn5ccc6cc(-n7c(O)nnc7-c7cc(C(C)C)c(O)cc7O)ccc65)CC4)cc13)-c1cc([C@@](O)(CC)C(=O)[O-])c(CO)c(=O)n1C2.[Na+]` [SDC-TRAP-0063 Sodium, Sodium (S)-2-(2-((4-(2-(5-(3-(2,4-dihydroxy-5-isopropylphenyl)-5-hydroxy-4H-1,2,4-triazol-4-yl)-1H-indol-1-yl)ethyl)piperidine-1-carbonyl)oxy)-12-ethyl-8-(hydroxymethyl)-9-oxo-9,11-dihydroindolizino[1,2-b]quinolin-7-yl)-2-hydroxybutanoate], the “pH of the reconstituted solution” value was found to be 10.0.
